Experimental data reported in US10072006B2 (MUTABILIS, priority 2015, dated 2018).
Converted amounts (≈) assume the structure as drawn. Where two headings read alike, the source gives them in different places.

Experiments:
[1] = tested on: E. coli 190317 (TEM-1, SHV-12, CTX-M-15, OXA-1); assay: microbe, parasite or virus in culture; format: cell-based; settings: for MIC: Escherichia coli, 18 h, read-out: MIC compounds of the invention alone; for MIC, combination of CAZ and compounds of the invention: MIC of ceftazidime with compound fixed at 4 μg/mL, strain 190317 (E. coli)
Protocol: (§1) Briefly, compounds alone according to the invention were prepared in DMSO and spotted (2 μL each) on sterile polystyrene plates (Corning, 3788). […] Microplates were incubated for 16-20 h at 35° C. in ambient air. The MIC of the compounds was defined as the lowest concentration of said compounds that prevented bacterial growth as read by visual inspection.

AmpC (P99) = AmpC (P99) (Enterobacter cloacae, UniProt P05364); assay: biochemical
CTX-M-15 = target: T1, CTX-M-15 (Escherichia coli, UniProt Q9EXV5); assay: β-lactamase inhibitory activity, determination of IC50 (nitrocefin hydrolysis); format: biochemical
T1 construct: made in house; host or cells: E. coli

SHV-1 = target: T2, SHV-1 (Klebsiella pneumoniae, UniProt P0AD64); assay: as above; format: biochemical
T2 construct: made in house; host or cells: E. coli

OXA-48 = target: T3, OXA-48 (Klebsiella pneumoniae, UniProt Q6XEC0); assay: as above; format: biochemical
T3 construct: made in house; host or cells: E. coli

OXA-11 = target: T4, OXA-11 (Pseudomonas aeruginosa, UniProt Q06778); assay: as above; format: biochemical
T4 construct: made in house; host or cells: E. coli

OXA-15 = target: T5, OXA-15 (Pseudomonas aeruginosa, UniProt Q51574); assay: as above; format: biochemical
T5 construct: made in house; host or cells: E. coli

[2] = tested on: K. pneumoniae BAA-1898 (TEM-1, SHV-11, SHV-12, KPC-2); assay: MIC of compounds and synergy with ceftazidime (broth microdilution); format: cell-based; settings: for MIC: Klebsiella pneumoniae; for MIC, combination of CAZ and compounds of the invention: MIC of ceftazidime with compound fixed at 4 μg/mL
Protocol: as §1

[3] = tested on: P. aeruginosa UFR90 (Derepressed ampC, OprD-); assay: as above; format: cell-based; settings: for MIC, combination of CAZ and compounds of the invention: MIC of ceftazidime with compound fixed at 4 μg/mL, strain UFR90 (P. aeruginosa)
Protocol: as §1

[4] = tested on: P. aeruginosa UFR48 (VIM-2); assay: as above; format: cell-based; settings: for MIC, combination of CAZ and compounds of the invention: MIC of ceftazidime with compound fixed at 4 μg/mL, strain UFR48 (P. aeruginosa)
Protocol: as §1

[5] = tested on: P. aeruginosa CIP105250 (OXA-15); assay: as above; format: cell-based; settings: for MIC, combination of CAZ and compounds of the invention: MIC of ceftazidime with compound fixed at 4 μg/mL; for MIC: Pseudomonas aeruginosa, read-out: MIC compounds of the invention alone
Protocol: as §1

[6] = tested on: P. aeruginosa UFR92 (Derepressed ampC, OprD-); assay: as above; format: cell-based; settings: for MIC, combination of CAZ and compounds of the invention: MIC of ceftazidime with compound fixed at 4 μg/mL, strain UFR92 (P. aeruginosa)
Protocol: as §1

[7] = tested on: P. aeruginosa UFR35 (OXA-23); assay: as above; format: cell-based; settings: for MIC, combination of CAZ and compounds of the invention: MIC of ceftazidime with compound fixed at 4 μg/mL, strain UFR35 (P. aeruginosa)
Protocol: as §1

[8] = tested on: P. aeruginosa UFR47 (VIM-1); assay: as above; format: cell-based; settings: for MIC, combination of CAZ and compounds of the invention: MIC of ceftazidime with compound fixed at 4 μg/mL, strain UFR47 (P. aeruginosa)
Protocol: as §1

[9] = tested on: P. aeruginosa UFR59 (IMP-29); assay: as above; format: cell-based; settings: for MIC, combination of CAZ and compounds of the invention: MIC of ceftazidime with compound fixed at 4 μg/mL, strain UFR59 (P. aeruginosa)
Protocol: as §1

E. coli RGN238 (OXA-1) = assay: as above; format: cell-based; settings: Escherichia coli, 18 h, read-out: MIC compounds of the invention alone
Protocol: as §1

[10] = tested on: E. coli 131119 (TEM-1, OXA-48); assay: as above; format: cell-based; settings: Escherichia coli, 18 h, read-out: MIC compounds of the invention alone
Protocol: as §1

[11] = tested on: E. cloacae P99 (Derepressed ampC); assay: as above; format: cell-based; settings: for MIC: Enterobacter cloacae, 18 h, read-out: MIC compounds of the invention alone; for MIC, combination of CAZ and compounds of the invention: MIC of ceftazidime with compound fixed at 4 μg/mL
Protocol: as §1

[12] = tested on: P. aeruginosa CIP107051 (TEM-24); assay: as above; format: cell-based; settings: for MIC, combination of CAZ and compounds of the invention: MIC of ceftazidime with compound fixed at 4 μg/mL; for MIC: Pseudomonas aeruginosa, read-out: MIC compounds of the invention alone
Protocol: as §1

[13] = tested on: P. aeruginosa UFR93 (Derepressed ampC, OprD-, MexAB+, MexXY+); assay: as above; format: cell-based; settings: for MIC, combination of CAZ and compounds of the invention: MIC of ceftazidime with compound fixed at 4 μg/mL, strain UFR93 (P. aeruginosa)
Protocol: as §1

[14] = tested on: K. pneumoniae 6299 (TEM-1, SHV-11, OXA-163); assay: as above; format: cell-based; settings: for MIC: Klebsiella pneumoniae, 18 h, read-out: MIC compounds of the invention alone; for MIC, combination of CAZ and compounds of the invention: MIC of ceftazidime with compound fixed at 4 μg/mL
Protocol: as §1

AmpC (PAE) = AmpC (PAE) (Pseudomonas aeruginosa, UniProt P24735); assay: biochemical
OXA-1 = target: T6, OXA-1 (Escherichia coli, UniProt P13661); assay: β-lactamase inhibitory activity, determination of IC50 (nitrocefin hydrolysis); format: biochemical
T6 construct: made in house; host or cells: E. coli

KPC-2 = target: T7, KPC-2 (Klebsiella pneumoniae, UniProt Q9F663); assay: as above; format: biochemical
T7 construct: made in house; host or cells: E. coli

TEM-1 = target: T8, TEM-1 (Escherichia coli, UniProt P62593); assay: as above; format: biochemical; settings: class (A), 30 min pre-incubation
T8 construct: made in house; host or cells: E. coli

[15] = strain BAA-1898 (K. pneumoniae)
[16] = Pseudomonas aeruginosa, 18 h, read-out: MIC compounds of the invention alone
[17] = strain CIP105250 (P. aeruginosa)
[18] = strain CIP107051 (P. aeruginosa)

NC[C@@H]1C=C(c2cnco2)[C@@H]2CN1C(=O)N2OC(F)(F)C(=O)O (relative stereo) [Example 3, lithium and 2,2,2-trifluoroacetate [trans-2-(azaniumylmethyl)-4-oxazol-5-yl-7-oxo-1,6-diazabicyclo[3.2.1]oct-3-en-6-yl]oxy]-2,2-difluoro-acetate]
MIC [1]: 0.25 µg/mL (≈ 0.757 µM) | MIC, combination of CAZ and compounds of the invention [1]: <0.125 µg/mL | IC50 (AmpC (P99)): 0.0074 µM | IC50 (CTX-M-15): 0.002 µM | IC50 (SHV-1): 0.0046 µM | IC50 (OXA-48): 0.0057 µM | IC50 (OXA-11): 0.048 µM | IC50 (OXA-15): 0.0016 µM | MIC ([2]; BAA1898, read-out: MIC compounds of the invention alone): > 32 µg/mL | MIC, combination of CAZ and compounds of the invention [2, 15]: 1 µg/mL | MIC, combination of CAZ and compounds of the invention [3]: <0.25 µg/mL | MIC [3, 16]: 1 µg/mL | MIC, combination of CAZ and compounds of the invention [4]: 16 µg/mL | MIC [4, 16]: 8 µg/mL | MIC, combination of CAZ and compounds of the invention [5, 17]: 8 µg/mL | MIC ([5]; CIP105250, 18 h): > 32 µg/mL | MIC, combination of CAZ and compounds of the invention [6]: ≤0.25 µg/mL | MIC [6, 16]: 8 µg/mL | MIC, combination of CAZ and compounds of the invention [7]: <0.25 µg/mL | MIC [7, 16]: 2 µg/mL | MIC, combination of CAZ and compounds of the invention [8]: <0.25 µg/mL | MIC [8, 16]: 4 µg/mL | MIC, combination of CAZ and compounds of the invention [9]: 2 µg/mL | MIC [9, 16]: 16 µg/mL | MIC (E. coli RGN238 (OXA-1)): > 32 µg/mL | MIC [10]: 0.5 µg/mL | MIC [11]: 0.063 µg/mL | MIC, combination of CAZ and compounds of the invention ([11]; strain P99 (E. cloacae)): <0.125 µg/mL | MIC, combination of CAZ and compounds of the invention [12, 18]: ≤0.25 µg/mL | MIC ([12]; CIP107051, 18 h): 16 µg/mL | MIC, combination of CAZ and compounds of the invention [13]: 0.5 µg/mL | MIC [13, 16]: 16 µg/mL | MIC [14]: > 32 µg/mL | MIC, combination of CAZ and compounds of the invention ([14]; strain 6299 (K. pneumoniae)): 1 µg/mL | IC50 (AmpC (PAE)): 0.22 µM | IC50 (OXA-1): 0.017 µM | IC50 (KPC-2): 0.033 µM | IC50 (TEM-1): 0.003 µM

Cn1cc(C2=C[C@@H](CN)N3C[C@@H]2N(OS(=O)(=O)O)C3=O)cnc1=O (relative stereo) [Example 6]
MIC [1]: 0.125 µg/mL (≈ 0.35 µM) | MIC, combination of CAZ and compounds of the invention [1]: <0.125 µg/mL | IC50 (AmpC (P99)): 6.4 µM | IC50 (CTX-M-15): 0.51 µM | IC50 (SHV-1): 0.34 µM | IC50 (OXA-48): 0.84 µM | IC50 (OXA-11): 1.6 µM | IC50 (OXA-15): 0.068 µM | MIC ([2]; BAA1898, strain BAA-1898 (K. pneumoniae), read-out: MIC compounds of the invention alone): > 32 µg/mL | MIC, combination of CAZ and compounds of the invention [2, 15]: 4 µg/mL | MIC, combination of CAZ and compounds of the invention [3]: <0.25 µg/mL | MIC, combination of CAZ and compounds of the invention [4]: <0.25 µg/mL | MIC, combination of CAZ and compounds of the invention [5, 17]: 64 µg/mL | MIC ([5]; 18 h, strain CIP105250 (P. aeruginosa)): 32 µg/mL | MIC, combination of CAZ and compounds of the invention [6]: <0.25 µg/mL | MIC, combination of CAZ and compounds of the invention [7]: <0.25 µg/mL | MIC, combination of CAZ and compounds of the invention [8]: <0.25 µg/mL | MIC, combination of CAZ and compounds of the invention [9]: <0.25 µg/mL | MIC (E. coli RGN238 (OXA-1); strain RGN238 (E. coli)): > 32 µg/mL | MIC ([10]; strain 131119 (E. coli)): > 32 µg/mL | MIC ([11]; strain P99 (E. cloacae)): 0.125 µg/mL | MIC, combination of CAZ and compounds of the invention ([11]; strain P99 (E. cloacae)): ≤0.125 µg/mL | MIC, combination of CAZ and compounds of the invention [12, 18]: 32 µg/mL | MIC ([12]; 18 h, strain CIP107051 (P. aeruginosa)): 16 µg/mL | MIC, combination of CAZ and compounds of the invention [13]: <0.25 µg/mL | MIC ([14]; strain 6299 (K. pneumoniae)): > 32 µg/mL | MIC, combination of CAZ and compounds of the invention ([14]; strain 6299 (K. pneumoniae)): 4 µg/mL | IC50 (AmpC (PAE)): 38 µM | IC50 (OXA-1): 1.2 µM | IC50 (KPC-2): 5.1 µM | IC50 (TEM-1): 0.28 µM
